The record followed here is ChEMBL document CHEMBL4402609, “Optimization of Hydantoins as Potent Antimycobacterial Decaprenylphosphoryl-β-d-Ribose Oxidase (DprE1) Inhibitors” (J Med Chem, 2020).

This data set in a line: Lipophilicity, log D of compound at pH 7.4 by chromatographic method. In kind it is physicochemical. As to conditions: buffer.

The structures appear in SMILES notation.

For the compound `C[C@]1(c2ccc(S(N)(=O)=O)cc2)NC(=O)N(CC(=O)c2ccc(F)cc2F)C1=O`, the chromatographic logD stood at 3.17.
The compound `C[C@@]1(c2ccc(S(N)(=O)=O)cc2)NC(=O)N(CC(=O)c2ccc(F)cc2F)C1=O` displayed a chromatographic logD of 3.17.
In turn, `CC1(c2ccc(S(=O)(=O)Nc3ccccc3)cc2)NC(=O)N(CC(=O)c2ccc(F)cc2F)C1=O` (racemic) displayed a chromatographic logD of 5.03.
In turn, `CCCCS(=O)(=O)Nc1ccc(C2(C)NC(=O)N(CC(=O)c3ccc(F)cc3F)C2=O)cc1` (racemic) had a chromatographic logD of 4.96.
Take `CC1(c2ccc(C#N)cc2)NC(=O)N(CC(=O)c2ccc(Cl)s2)C1=O` (racemic): the chromatographic logD was found to be 4.85.
In the case of `CC1(c2ccc(S(N)(=O)=O)cc2)NC(=O)N(CC(=O)c2cccc(C(F)(F)F)c2)C1=O` (racemic), the chromatographic logD worked out at 3.96.
`CC1(c2ccc(S(N)(=O)=O)cc2)NC(=O)N(CC(=O)C23CC4CC(CC(C4)C2)C3)C1=O` (racemic) gave a chromatographic logD of 2.52.
Turning to `CC1(c2ccc(S(N)(=O)=O)cc2)NC(=O)N(CC(=O)c2ccc(F)c(Cl)c2)C1=O` (racemic), the chromatographic logD came to 3.82.
`CC(=O)CN1C(=O)NC(C)(c2ccc(S(N)(=O)=O)cc2)C1=O` (racemic) registered a chromatographic logD of 0.54.
`CC1(c2ccc(S(N)(=O)=O)cc2)NC(=O)N(CC(=O)c2ccccc2C(F)(F)F)C1=O` (racemic) yielded a chromatographic logD of 3.56.
Compound `CC1(c2ccc(S(N)(=O)=O)cc2)NC(=O)N(CC(=O)c2ccc3ccccc3c2)C1=O` (racemic) gave a chromatographic logD of 3.93.
Then `CNS(=O)(=O)c1ccc(C2(C)NC(=O)N(CC(=O)c3ccc(F)cc3F)C2=O)cc1` (racemic), with 3.88; and `CN(C)S(=O)(=O)c1ccc(C2(C)NC(=O)N(CC(=O)c3ccc(F)cc3F)C2=O)cc1` (racemic), with 4.6.
On to `CC1(c2ccc(C#N)cc2)NC(=O)N(CC(=O)c2ccccc2F)C1=O` (racemic), for which the chromatographic logD turned out to be 4.3.
In turn, `CC1(c2ccc(NS(=O)(=O)C(F)(F)F)cc2)NC(=O)N(CC(=O)c2ccc(F)cc2F)C1=O` (racemic) gave a chromatographic logD of 3.24.
As for `CC1(c2ccc(S(N)(=O)=O)cc2)NC(=O)N(CC(=O)c2ncc(F)cc2F)C1=O` (racemic), the chromatographic logD turned out to be 2.39.
The same measure for `CC1(c2ccc(S(N)(=O)=O)cc2)NC(=O)N(CC(=O)c2nc3ccccc3s2)C1=O` (racemic): 3.78; for `Cc1cccc(C(=O)CN2C(=O)NC(C)(c3ccc(S(N)(=O)=O)cc3)C2=O)c1` (racemic): 3.36.
As for `CC1(c2ccc3c(c2)NC(=O)CO3)NC(=O)N(CC(=O)c2ccc(F)cc2F)C1=O` (racemic), the chromatographic logD turned out to be 3.38.
`CC1(c2ccc(S(N)(=O)=O)cc2)NC(=O)N(CC(=O)c2cccnc2)C1=O` (racemic): the chromatographic logD worked out at 3.48.
`CC1(c2ccc(-c3nnn[nH]3)cc2)NC(=O)N(CC(=O)c2ccc(F)cc2F)C1=O` (racemic) showed a chromatographic logD of 1.85.
`CC1(c2ccc(CS(C)(=O)=O)cc2)NC(=O)N(CC(=O)c2ccc(F)cc2F)C1=O` (racemic) came in with a chromatographic logD of 3.54.
The compound `CC1(c2ccc(S(N)(=O)=O)cc2)NC(=O)N(CC(=O)c2ccncc2)C1=O` (racemic) yielded a chromatographic logD of 2.46.
Then `CC1(c2ccc(NC(N)=O)cc2)NC(=O)N(CC(=O)c2ccc(F)cc2F)C1=O` (racemic), with 2.71.
Then `CC1(c2ccc(C#N)cc2)NC(=O)N(CC(=O)c2ccc(F)c(C(F)(F)F)c2)C1=O` (racemic), with 5.38; and `CC1(c2ccc(S(N)(=O)=O)cc2)NC(=O)N(CC(=O)c2ccc(Cl)s2)C1=O` (racemic), with 3.52.
On to `CC1(c2ccc(S(N)(=O)=O)cc2)NC(=O)N(CC(=O)c2ccc(Cl)cc2Cl)C1=O` (racemic), for which the chromatographic logD stood at 4.11.
`CC1(c2ccc(S(N)(=O)=O)cc2)NC(=O)N(CC(=O)C2CC2)C1=O` (racemic) displayed a chromatographic logD of 1.51.
For the compound `CC1(c2ccc(S(N)(=O)=O)cc2)NC(=O)N(CC(=O)c2ccc(C(F)(F)F)cc2)C1=O` (racemic), the chromatographic logD worked out at 4.15.
On to `CC1(c2ccc(S(N)(=O)=O)cc2)NC(=O)N(CC(=O)c2nccs2)C1=O` (racemic), for which the chromatographic logD came to 1.9.
As for `CC1(c2ccc(S(N)(=O)=O)cc2)NC(=O)N(CC(=O)c2cccc(F)c2)C1=O` (racemic), the chromatographic logD amounted to 3.08.
As for `COc1ccccc1C(=O)CN1C(=O)NC(C)(c2ccc(S(N)(=O)=O)cc2)C1=O` (racemic), the chromatographic logD came to 2.98. The chromatographic logD values of the last two compounds are within 0.2 log units of each other.
As to `Cc1ccc(C(=O)CN2C(=O)NC(C)(c3ccc(S(N)(=O)=O)cc3)C2=O)cc1` (racemic), the chromatographic logD worked out at 3.33.
Then `CC1(c2ccc(S(N)(=O)=O)cc2)NC(=O)N(CC(=O)c2ccccc2)C1=O` (racemic), with 2.81; and `CC1(c2ccc(S(N)(=O)=O)cc2)NC(=O)N(CC(=O)c2cccc(OC(F)(F)F)c2)C1=O` (racemic), with 4.14.
The compound `CC1(c2ccc(C#N)cc2)NC(=O)N(CC(=O)c2cccc(F)c2)C1=O` (racemic) displayed a chromatographic logD of 4.39.
With `Cc1ccccc1C(=O)CN1C(=O)NC(C)(c2ccc(S(N)(=O)=O)cc2)C1=O` (racemic), the chromatographic logD amounted to 3.3.
Turning to `COc1ccc(C(=O)CN2C(=O)NC(C)(c3ccc(S(N)(=O)=O)cc3)C2=O)cc1` (racemic), the chromatographic logD amounted to 2.86.
Then `CC1(c2ccc(S(N)(=O)=O)cc2)NC(=O)N(CC(=O)c2cccc(C#N)c2)C1=O` (racemic), with 2.4; and `CC1(c2ccc(S(N)(=O)=O)cc2)NC(=O)N(CC(=O)c2ccccn2)C1=O` (racemic), with 4.87; and `Cc1ccccc1C(=O)CN1C(=O)NC(C)(c2ccc(C#N)cc2)C1=O` (racemic), with 4.73.
`CC1(c2ccc(S(=O)(=O)NCC(F)(F)F)cc2)NC(=O)N(CC(=O)c2ccc(F)cc2F)C1=O` (racemic): the chromatographic logD worked out at 4.78.
The same measure for `COc1cccc(C(=O)CN2C(=O)NC(C)(c3ccc(S(N)(=O)=O)cc3)C2=O)c1` (racemic): 3; for `CC1(c2ccc(S(N)(=O)=O)cc2)NC(=O)N(CC(=O)c2cccc([N+](=O)[O-])c2)C1=O` (racemic): 2.77; for `CC(C)(C)C(=O)Oc1cc(F)ccc1C(=O)CN1C(=O)NC(C)(c2ccc(C#N)cc2)C1=O` (racemic): 5.84.
In turn, `CC1(c2ccc(C(=O)O)cc2)NC(=O)N(CC(=O)c2ccc(F)cc2F)C1=O` (racemic) yielded a chromatographic logD of 1.49.
Compound `CC1(c2ccc(C#N)cc2)NC(=O)N(CC(=O)c2ccccn2)C1=O` (racemic) had a chromatographic logD of 2.03.
Consider `CC1(c2ccc(C(N)=O)cc2)NC(=O)N(CC(=O)c2ccc(F)cc2F)C1=O` (racemic), for which the chromatographic logD was 2.68.
As for `CC1(c2ccc(C#N)cc2)NC(=O)N(CC(=O)c2ccc(F)cc2O)C1=O` (racemic), the chromatographic logD was 4.56.
Then `Cc1cccc(C(=O)CN2C(=O)NC(C)(c3ccc(C#N)cc3)C2=O)c1` (racemic), with 4.71; and `CC1(c2ccc(C#N)cc2)NC(=O)N(CC(=O)c2ccncc2)C1=O` (racemic), with 1.16; and `CC1(c2ccc(C#N)cc2)NC(=O)N(CC(=O)c2cccc(OC(F)(F)F)c2)C1=O` (racemic), with 5.5.
Then `CC1(c2ccc(S(N)(=O)=O)cc2)NC(=O)N(CC(=O)c2cccs2)C1=O` (racemic), with 2.35.
`CC1(c2ccc(N3CCCOC3=O)cc2)NC(=O)N(CC(=O)c2ccc(F)cc2F)C1=O` (racemic) came in with a chromatographic logD of 3.36.
Then `CC1(c2ccc(S(=O)(=O)NC3CC3)cc2)NC(=O)N(CC(=O)c2ccc(F)cc2F)C1=O` (racemic), with 4.48.
In the case of `CC1(c2ccc(S(N)(=O)=O)cc2)NC(=O)N(CC(=O)c2ccc(F)cc2O)C1=O` (racemic), the chromatographic logD amounted to 3.12.
As to `Cc1ccc(C(=O)CN2C(=O)NC(C)(c3ccc(C#N)cc3)C2=O)cc1` (racemic), the chromatographic logD turned out to be 4.73.
The same measure for `CC1(c2ccc(S(N)(=O)=O)cc2)NC(=O)N(CC(=O)c2ccc(F)c(C(F)(F)F)c2)C1=O` (racemic): 4.24.
With `COC(=O)c1ccc(C2(C)NC(=O)N(CC(=O)c3ccc(F)cc3F)C2=O)cc1` (racemic), the chromatographic logD is 4.84.
The compound `CC1(c2ccc(C#N)cc2)NC(=O)N(CC(=O)c2cccnc2)C1=O` (racemic) came in with a chromatographic logD of 1.16.
Compound `CC1(c2ccc(S(N)(=O)=O)cc2)NC(=O)N(CC(=O)c2ccc(F)cc2)C1=O` (racemic) returned a chromatographic logD of 3.03.
Compound `CC1(c2ccc(NS(=O)(=O)c3ccccc3)cc2)NC(=O)N(CC(=O)c2ccc(F)cc2F)C1=O` (racemic) registered a chromatographic logD of 4.9.
In turn, `CC1(c2ccc(S(N)(=O)=O)cc2)NC(=O)N(CC(=O)c2ccccc2F)C1=O` (racemic) gave a chromatographic logD of 2.94.
The same measure for `CC1(c2ccc(C#N)cc2)NC(=O)N(CC(=O)c2ccccc2)C1=O` (racemic): 4.19; for `CC1(c2ccc(S(N)(=O)=O)cc2)NC(=O)N(CC(=O)C2CCCCC2)C1=O` (racemic): 3.62; for `CC1(c2ccc(S(N)(=O)=O)cc2)NC(=O)N(CC(=O)c2ccc(C#N)cc2)C1=O` (racemic): 2.54.
In the case of `CC1(c2ccc(S(=O)(=O)N3CCOCC3)cc2)NC(=O)N(CC(=O)c2ccc(F)cc2F)C1=O` (racemic), the chromatographic logD amounted to 4.39.
`CC1(c2ccc(S(N)(=O)=O)cc2)NC(=O)N(CC(=O)c2ccc(F)c(F)c2)C1=O` (racemic) displayed a chromatographic logD of 3.34.
In turn, `CC1(c2ccc(S(N)(=O)=O)cc2)NC(=O)N(CC(=O)c2cc(C(F)(F)F)cc(C(F)(F)F)c2)C1=O` (racemic) registered a chromatographic logD of 4.9.
In the case of `CC1(c2ccc(S(N)(=O)=O)cc2)NC(=O)N(CC(=O)c2cccc(Br)c2)C1=O` (racemic), the chromatographic logD was 3.77.
